Measurements from patent publication US20190345138A1, “HETEROCYCLIC AMIDES AS KINASE INHIBITORS” (GlaxoSmithKline Intellectual Property Development Limited, priority 2016, published 2019).
pIC50: −log10 of the molar value. Several values for one entry are separate records, joined by “and”; a condition that tells them apart may be missing. Identical values can stand only once.

Columns and labels:
[1] = target: T1, RIP1 kinase (Homo sapiens, UniProt Q13546); experiment: fluorescent polarization based binding assay; conditions: mean of a minimum of 2 experiments
T1 sequence (Q13546 1-375 limits assumed): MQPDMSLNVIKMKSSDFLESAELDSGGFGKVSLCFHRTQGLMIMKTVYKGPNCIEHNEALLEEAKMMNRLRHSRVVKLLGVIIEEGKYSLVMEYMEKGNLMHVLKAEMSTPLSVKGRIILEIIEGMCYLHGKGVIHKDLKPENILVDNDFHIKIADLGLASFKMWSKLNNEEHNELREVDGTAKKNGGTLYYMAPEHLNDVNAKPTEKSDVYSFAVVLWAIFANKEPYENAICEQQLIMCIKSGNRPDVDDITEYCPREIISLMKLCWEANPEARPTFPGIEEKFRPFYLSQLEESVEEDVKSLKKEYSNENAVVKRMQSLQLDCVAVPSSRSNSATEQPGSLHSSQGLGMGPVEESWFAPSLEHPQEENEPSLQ
Text: A fluorescent polarization based binding assay was used to assess the activity of the compounds of this invention, the details of which are disclosed in International Patent Appln. No. PCT/IB2014/059004, now, International Patent Appln. Pub.

[2] = test system: human monocytic leukemia U937 cells; experiment: necroptosis assay in U937 cells; type: cell-based; conditions: Homo sapiens, U-937, U937 cells; viability by cellular ATP (Cell Titer-Glo); read-out: pIC50, inhibited necrosis in U937 cells (converted)
Experimental: The efficacy of RIP1 inhibitors can be tested […] in vitro using a human monocytic leukemia U937 or mouse L929 fibrosarcoma cells in a necroptosis assay. As determined using the method described in S. He et al., Cell, 137(6):1100-1111 (2009) and International Patent Appln. No. PCT/IB2014/059004, now, International Patent Appln. Pub.
Viability was measured by quantitating cellular levels of ATP using the Cell Titer-Glo kit. All data are means±standard deviation of the mean.

Compound	pIC50 [1]	IC50 [2] [nM]
O=C(c1ccnc(N2CCC(C(=O)N3N=CC[C@H]3c3ccccc3)CC2)n1)N1CCOCC1 [Example 145, (S)-(1-(4-(morpholine-4-carbonyl)pyrimidin-2-yl)piperidin-4-yl)(5-phenyl-4,5-dihydro-1H-pyrazol-1-yl)methanone]	7.50 to 9.00	1 to 100
O=C1NCCC1c1nc(N2CCC(C(=O)N3N=CC[C@H]3c3cncc(F)c3)CC2)ncc1F (stereo partly drawn) [Example 151, 3-(5-fluoro-2-(4-((S)-5-(5-fluoropyridin-3-yl)-4,5-dihydro-1H-pyrazole-1-carbonyl)piperidin-1-yl)pyrimidin-4-yl)pyrrolidin-2-one]		1 to 100
NC(=O)c1ccc(N2CCC(C(=O)N3N=CC[C@H]3c3ccccc3)CC2)nc1 [Example 30, (S)-6-(4-(5-phenyl-4,5-dihydro-1H-pyrazole-1-carbonyl)piperidin-1-yl)nicotinamide]	7.50 to 9.00	
N#Cc1cnc(N2CCC(C(=O)N3N=CC[C@H]3c3cc(F)cc(F)c3)CC2)cn1 [Example 95, (S)-5-(4-(5-(3,5-difluorophenyl)-4,5-dihydro-1H-pyrazole-1-carbonyl)piperidin-1-yl)pyrazine-2-carbonitrile]		1 to 100
N#Cc1ccnc(N2CCC(C(=O)N3N=CCC3c3ccccc3)CC2)n1 (racemic) [Example 5, 2-(4-(5-phenyl-4,5-dihydro-1H-pyrazole-1-carbonyl)piperidin-1-yl)pyrimidine-4-carbonitrile]		1 to 100
O=C(C1CCN(c2nccc(-c3nn[nH]n3)n2)CC1)N1N=CC[C@H]1c1ccccc1 [Example 148, (S)-(1-(4-(2H-tetrazol-5-yl)pyrimidin-2-yl)piperidin-4-yl)(5-phenyl-4,5-dihydro-1H-pyrazol-1-yl)methanone]	7.50 to 9.00 and 8.00 to 9.00	
O=C(C1CCN(c2nc(=O)c3cn[nH]c3[nH]2)CC1)N1N=CC[C@H]1c1ccccc1 [Example 37, (S)-6-(4-(5-phenyl-4,5-dihydro-1H-pyrazole-1-carbonyl)piperidin-1-yl)-1H-pyrazolo[3,4-d]pyrimidin-4(7H)-one]	7.50 to 9.00	
N#Cc1cccc([C@@H]2CC=NN2C(=O)C2CCN(c3ccn4nccc4n3)CC2)c1 [Example 62, (S)-3-(1-(1-(pyrazolo[1,5-a]pyrimidin-5-yl)piperidine-4-carbonyl)-4,5-dihydro-1H-pyrazol-5-yl)benzonitrile]	7.50 to 9.00	
CCOC(=O)c1coc(N2CCC(C(=O)N3N=CC[C@H]3c3ccccc3)CC2)n1 [Example 65, (S)-ethyl 2-(4-(5-phenyl-4,5-dihydro-1H-pyrazole-1-carbonyl)piperidin-1-yl)oxazole-4-carboxylate]	7.50 to 9.00	
N#Cc1ccc(N2CCC(C(=O)N3N=CC[C@H]3c3cc(F)cc(F)c3)CC2)nn1 [Example 94, (S)-6-(4-(5-(3,5-difluorophenyl)-4,5-dihydro-1H-pyrazole-1-carbonyl)piperidin-1-yl)pyridazine-3-carbonitrile]		1 to 100
N#Cc1cc(N2CCC(C(=O)N3N=CC[C@H]3c3cncc(F)c3)CC2)ncn1 [Example 111, (S)-6-(4-(5-(5-fluoropyridin-3-yl)-4,5-dihydro-1H-pyrazole-1-carbonyl)piperidin-1-yl)pyrimidine-4-carbonitrile]		1 to 100
Cc1nnc(-c2cc(N3CCC(C(=O)N4N=CC[C@H]4c4ccccc4)CC3)ncn2)o1 [Example 129, (S)-(1-(6-(5-methyl-1,3,4-oxadiazol-2-yl)pyrimidin-4-yl)piperidin-4-yl)(5-phenyl-4,5-dihydro-1H-pyrazol-1-yl)methanone]		1 to 100
O=C(C1CCN(c2nccc(-c3ccccc3)n2)CC1)N1N=CCC1c1ccccc1 (racemic) [Example 4, (5-phenyl-4,5-dihydro-1H-pyrazol-1-yl)(1-(4-phenylpyrimidin-2-yl)piperidin-4-yl)methanone]		1 to 100
NC(=O)c1coc(N2CCC(C(=O)N3N=CC[C@H]3c3ccccc3)CC2)n1 [Example 136, (S)-2-(4-(5-phenyl-4,5-dihydro-1H-pyrazole-1-carbonyl)piperidin-1-yl)oxazole-4-carboxamide]	7.50 to 9.00	
O=C(NC1CC1)c1ccnc(N2CCC(C(=O)N3N=CC[C@H]3c3ccccc3)CC2)n1 [Example 125, (S)—N-cyclopropyl-2-(4-(5-phenyl-4,5-dihydro-1H-pyrazole-1-carbonyl)piperidin-1-yl)pyrimidine-4-carboxamide]		1 to 100
NC(=O)c1ncnc(N2CCC(C(=O)N3N=CC[C@H]3c3cncc(F)c3)CC2)c1F [Example 160, (S)-5-fluoro-6-(4-(5-(5-fluoropyridin-3-yl)-4,5-dihydro-1H-pyrazole-1-carbonyl)piperidin-1-yl)pyrimidine-4-carboxamide]		1 to 100

Continued, in another order:

pIC50 [1]	Compound	IC50 [2] [nM]
7.50 to 9.00	O=C(C1CCN(c2ncc(F)c(OCCO)n2)CC1)N1N=CC[C@H]1c1ccccc1 [Example 155, (S)-(1-(5-fluoro-4-(2-hydroxyethoxy)pyrimidin-2-yl)piperidin-4-yl)(5-phenyl-4,5-dihydro-1H-pyrazol-1-yl)methanone]	1 to 100
7.50 to 9.00	N#Cc1nccc(N2CCC(C(=O)N3N=CC[C@H]3c3cncc(F)c3)CC2)n1 [Example 115, (S)-4-(4-(5-(5-fluoropyridin-3-yl)-4,5-dihydro-1H-pyrazole-1-carbonyl)piperidin-1-yl)pyrimidine-2-carbonitrile]	1 to 100
7.50 to 9.00	O=C(C1CCN(c2ncc(O)cn2)CC1)N1N=CC[C@H]1c1ccccc1 [Example 128, (S)-(1-(5-hydroxypyrimidin-2-yl)piperidin-4-yl)(5-phenyl-4,5-dihydro-1H-pyrazol-1-yl)methanone]	1 to 100
7.50 to 9.00	CSc1nccc(N2CCC(C(=O)N3N=CC[C@H]3c3cncc(F)c3)CC2)n1 [Example 114, (S)-(5-(5-fluoropyridin-3-yl)-4,5-dihydro-1H-pyrazol-1-yl)(1-(2-(methylthio)pyrimidin-4-yl)piperidin-4-yl)methanone]	
7.50 to 9.00	COc1nccc(N2CCC(C(=O)N3N=CC[C@H]3c3cccc(C#N)c3)CC2)n1 [Example 75, (S)-3-(1-(1-(2-methoxypyrimidin-4-yl)piperidine-4-carbonyl)-4,5-dihydro-1H-pyrazol-5-yl)benzonitrile]	
7.50 to 9.00	NC(=O)c1cnc(N2CCC(C(=O)N3N=CC[C@H]3c3ccccc3)CC2)cn1 [Example 63, (S)-5-(4-(5-phenyl-4,5-dihydro-1H-pyrazole-1-carbonyl)piperidin-1-yl)pyrazine-2-carboxamide]	
7.50 to 9.00	CCOC(=O)c1cnc(N2CCC(C(=O)N3N=CC[C@H]3c3cc(F)cc(F)c3)CC2)o1 [Example 107, (S)-ethyl 2-(4-(5-(3,5-difluorophenyl)-4,5-dihydro-1H-pyrazole-1-carbonyl)piperidin-1-yl)oxazole-5-carboxylate]	
7.50 to 9.00	NC(=O)COc1nc(N2CCC(C(=O)N3N=CC[C@H]3c3ccccc3)CC2)ncc1F [Example 167, (S)-2-((5-fluoro-2-(4-(5-phenyl-4,5-dihydro-1H-pyrazole-1-carbonyl)piperidin-1-yl)pyrimidin-4-yl)oxy)acetamide]	
7.50 to 9.00	O=C1NCC[C@@H]1c1nc(N2CCC(C(=O)N3N=CC[C@H]3c3cncc(F)c3)CC2)ncc1F [Example 166, (R)-3-(5-fluoro-2-(4-((S)-5-(5-fluoropyridin-3-yl)-4,5-dihydro-1H-pyrazole-1-carbonyl)piperidin-1-yl)pyrimidin-4-yl)pyrrolidin-2-one]	
7.50 to 9.00	COC(=O)c1cnc(N2CCC(C(=O)N3N=CC[C@H]3c3ccccc3)CC2)nc1 [Example 10, (S)-methyl 2-(4-(5-phenyl-4,5-dihydro-1H-pyrazole-1-carbonyl)piperidin-1-yl)pyrimidine-5-carboxylate]	
7.50 to 9.00 and 8.00 to 9.00	O=C(C1CCN(c2ccn3nccc3n2)CC1)N1N=CC[C@H]1c1cc(F)cc(F)c1 [Example 90, (S)-(5-(3,5-difluorophenyl)-4,5-dihydro-1H-pyrazol-1-yl)(1-(pyrazolo[1,5-a]pyrimidin-5-yl)piperidin-4-yl)methanone]	
7.50 to 9.00	CC(=O)Nc1cc(N2CCC(C(=O)N3N=CC[C@H]3c3cc(F)cc(F)c3)CC2)ncn1 [Example 120, (S)-N-(6-(4-(5-(3,5-difluorophenyl)-4,5-dihydro-1H-pyrazole-1-carbonyl)piperidin-1-yl)pyrimidin-4-yl)acetamide]	
7.50 to 9.00	COc1cc(N2CCC(C(=O)N3N=CC[C@H]3c3cncc(F)c3)CC2)ncn1 [Example 113, (S)-(5-(5-fluoropyridin-3-yl)-4,5-dihydro-1H-pyrazol-1-yl)(1-(6-methoxypyrimidin-4-yl)piperidin-4-yl)methanone]	
7.50 to 9.00 and 8.00 to 9.00	O=C(C1CCN(c2ncc(F)c(OCc3nn[nH]n3)n2)CC1)N1N=CC[C@H]1c1ccccc1 [Example 154, (S)-(1-(4-((2H-tetrazol-5-yl)methoxy)-5-fluoropyrimidin-2-yl)piperidin-4-yl)(5-phenyl-4,5-dihydro-1H-pyrazol-1-yl)methanone]	
